Where two headings read alike, the source gives them in different places.
Assays:
GLP-1 receptor [1] = biological target: T1, GLP-1 receptor (Rattus norvegicus, UniProt P32301); details: for cAMP production by compound alone: absence of GLP-1; for intrinsic agonistic or antagonistic activity: summary of studies; for effect on GLP-1 dose-response curve / GLP-1 stimulated cAMP production: FIG. 9A
T1 sequence (P32301 22-463): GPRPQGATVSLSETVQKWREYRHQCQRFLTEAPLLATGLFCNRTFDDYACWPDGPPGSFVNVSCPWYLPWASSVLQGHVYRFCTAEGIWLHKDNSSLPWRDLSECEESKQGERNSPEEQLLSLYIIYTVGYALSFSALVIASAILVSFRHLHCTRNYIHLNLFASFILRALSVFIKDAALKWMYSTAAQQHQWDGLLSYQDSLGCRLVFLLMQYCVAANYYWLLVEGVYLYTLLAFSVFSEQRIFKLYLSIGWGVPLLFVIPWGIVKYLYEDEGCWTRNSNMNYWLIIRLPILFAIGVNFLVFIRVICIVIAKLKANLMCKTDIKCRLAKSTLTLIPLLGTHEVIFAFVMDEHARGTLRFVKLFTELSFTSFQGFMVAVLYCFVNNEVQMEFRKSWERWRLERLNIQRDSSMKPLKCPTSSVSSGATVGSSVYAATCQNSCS
Excerpt: (§1) In the resting stage when the intracellular cAMP is minimal, a large BRET ratio was observed.

GLP-1 = GLP-1 (Homo sapiens, UniProt P01275); test: Limited trypsin digestion of GLP-1 peptide; type: biochemical; details: free GLP-1 or with galanal b; preliminary observation
Excerpt: This is consistent with the finding that GPCR can exist in multiple active conformations, distinct conformation of the receptor is stabilized by distinct ligand structure and may lead to distinct signaling selectivity (55). […] There are at least two possible mechanisms to account for these observations. […] By binding to and modifying structural conformation of the receptor, the allosteric inhibitor of parturition (PDC 113.824) induces biased signaling when an orthosteric ligand is co-bound to the prostaglandin F2α receptor (56). […] Subtle conformation changes in peptide agonists can lead to selective coupling of the receptor to its downstream signaling pathway. As it has been shown in the case of biased agonist for the type 1 parathyroid hormone receptor (PTH1R) (25) and angiotensin II type 1A receptor ligands (57), subtle structure change of the peptide ligands can profoundly stabilize a distinct conformation of the receptor protein that selectively affects the coupling efficiency of a particular downstream signaling pathway.

GLP-1 receptor [2] = biological target: T2, GLP-1 receptor (Homo sapiens, UniProt P43220); test: Receptor endocytosis assay, U2OS cells co-expressing GLP-1 receptor and β-arrestin2:GFP; type: cell-based; details: for positive modulation effect on GLP-1 elicited receptor endocytosis in the presence of exendin 9: FIG. 8, plus 1.8 mM of Exendin 9; for Efficacy of GLP-1 to elicit receptor endocytosis: Table 2, printed (100%), GLP-1 only or GLP-1 plus indicated compound
T2 construct: expressed in transfected cells; host or cells: U2OS osteosarcoma cells stably expressing beta-arrestin2:GFP (Norak Biosciences)
Procedure: U2OS osteosarcoma cell line stably expressing a β-arrestin2:GFP fusion protein was obtained from Norak Biosciences (now Molecular Devices, part of MDS Inc., Mississauga, Ontario). […] Extracts were supplied at a concentration of 100 mg/ml in 100% DMSO. […] Plates were washed with PBS twice and sealed and could be stored at 4° C. The final concentration of the extract in the cell plate was 0.1, 0.03 and 0.001 mg/ml, and the final DMSO concentration was 1%.
Images and data of the cells were performed according to reported methods (51), using an ArrayScan® VTI HCS Reader (Cellomics, Inc. Pittsburgh, Pa.). […] A 20×0.4 numerical aperture microscope objective was used for the imaging, 3 fields were imaged per well, and CELLOMICS's Spot Detector BIOAPPLICATION was used to acquire and analyze the images. For these experiments, the Spot Detector BIOAPPLICATION used the Hoechst-labeled nuclei to identify individual cells and then automatically counted and analyzed the GFP-labeled spots associate with each cell. In addition to the number of spots and the sum of their areas and pixel intensities, the BIOAPPLICATION also reports properties of the individual nuclei such as their area.
One unit of activity is defined as the activity that will reach 50% of maximal response in a well of 384-well plate.
In addition, these processes can be visualized from its image (52), thus easily exclude false positive hits.

GLP-1 receptor [3] = biological target: T1, GLP-1 receptor; test: cell-based
Excerpt: as §1

[4] = tested on: cAMP production elicited by GIP; details: 0.025 mg/ml; FIG. 11
Excerpt: as §1

[5] = tested on: cAMP production elicited by glucagon; details: 0.025 mg/ml; FIG. 11
Excerpt: as §1

PTHR = biological target: T3, PTHR (Homo sapiens, UniProt Q03431); test: PTH induced receptor endocytosis, PTHR/β-arrestin 2 GFP U2OS cells; type: cell-based; details: 15 nM of PTH; FIG. 5B
T3 construct: expressed in transfected cells
T3 sequence (Q03431 27-593): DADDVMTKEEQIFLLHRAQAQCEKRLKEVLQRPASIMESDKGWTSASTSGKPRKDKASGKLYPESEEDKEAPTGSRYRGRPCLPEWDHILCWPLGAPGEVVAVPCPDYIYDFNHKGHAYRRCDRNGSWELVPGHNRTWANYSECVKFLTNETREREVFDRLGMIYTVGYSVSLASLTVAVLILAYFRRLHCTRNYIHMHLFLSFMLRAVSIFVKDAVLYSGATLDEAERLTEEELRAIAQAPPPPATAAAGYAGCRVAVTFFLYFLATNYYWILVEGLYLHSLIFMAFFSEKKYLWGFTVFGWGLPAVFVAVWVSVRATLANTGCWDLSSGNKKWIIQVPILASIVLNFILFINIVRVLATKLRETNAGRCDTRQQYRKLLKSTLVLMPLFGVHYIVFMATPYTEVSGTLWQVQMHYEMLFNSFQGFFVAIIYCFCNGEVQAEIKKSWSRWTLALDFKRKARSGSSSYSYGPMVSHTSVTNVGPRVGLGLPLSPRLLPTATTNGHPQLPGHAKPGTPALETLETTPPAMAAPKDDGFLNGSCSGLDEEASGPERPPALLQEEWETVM
Procedure: The GLP-1R/3-arrestin2 GFP (Panel A) or PTHR/β-arrestin 2 GFP (Panel B) double stable expression U2OS cells were plated in 384-well plastic plates at a density of 3000 cell/well and cultured overnight.
U2OS osteosarcoma cell line stably expressing a β-arrestin2:GFP fusion protein was obtained from Norak Biosciences (now Molecular Devices, part of MDS Inc., Mississauga, Ontario). […] Extracts were supplied at a concentration of 100 mg/ml in 100% DMSO. […] The 3 cell assay plates were incubated at room temperature for 60 min before fixation with 2% formaldehyde and labeling of the cell nuclei with 5 μg/mL of the DNA-binding dye Hoechst 33342 (Molecular Probes, Eugene, Oreg.) for 1 hr. Plates were washed with PBS twice and sealed and could be stored at 4° C. The final concentration of the extract in the cell plate was 0.1, 0.03 and 0.001 mg/ml, and the final DMSO concentration was 1%.

T2 sequence (P43220 24-463, species assumed): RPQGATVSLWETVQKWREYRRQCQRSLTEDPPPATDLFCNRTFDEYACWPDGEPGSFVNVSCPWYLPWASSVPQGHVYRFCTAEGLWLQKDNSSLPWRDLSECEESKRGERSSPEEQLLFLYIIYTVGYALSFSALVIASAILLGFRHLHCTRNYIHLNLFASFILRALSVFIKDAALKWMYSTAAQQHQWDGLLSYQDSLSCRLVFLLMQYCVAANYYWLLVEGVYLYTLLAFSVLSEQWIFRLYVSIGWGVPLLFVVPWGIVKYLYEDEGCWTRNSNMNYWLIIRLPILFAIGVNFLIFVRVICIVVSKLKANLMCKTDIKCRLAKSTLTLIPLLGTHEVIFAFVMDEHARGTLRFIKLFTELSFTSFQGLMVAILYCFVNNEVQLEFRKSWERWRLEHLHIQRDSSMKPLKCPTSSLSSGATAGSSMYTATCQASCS
Chain of GLP-1 (P01275 98-127 limits assumed): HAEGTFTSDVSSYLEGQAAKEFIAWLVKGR

## Cl.c1ccc(C2CCCC2NC2=NCCCCCCCCCCC2)cc1 (stereo not drawn) [MDL 12330A, reference compound]
GLP-1 receptor [1]; 250 μM
  GLP-1 or forskolin dose response of cAMP (BRET ratio) in presence of inhibitor: eliminated

## COc1cc(C2C(NC(=O)c3ccc(NC(=O)OC(C)(C)C)cc3)(C(=O)O)C(c3ccc(OC(=O)c4cccs4)c(OC)c3)C2(NC(=O)c2ccc(NC(=O)OC(C)(C)C)cc2)C(=O)O)ccc1OC(=O)c1cccs1 (stereo not drawn) [Boc5, reference compound]
GLP-1 receptor [1]; RINm5F cells
  concentration needed to stimulate low level cAMP production, fold higher: 1000 fold

## COC(=O)C1=CC[C@H]2[C@@H](CC[C@H]3C(C)(C)CCC[C@]23C)C(=O)C1 (racemic) [RJ-011, (±)-(6aS,11aS,11bR)-methyl 4,4,11b-trimethyl-7-oxo-2,3,4,4a,5,6,6a,7,8,11,11a,11b-dodecahydro-1H-cyclohepta[a]naphthalene-9-carboxylate]
other
  melting point: 93 to 94 °C

## CC[C@H](C)[C@H](NC(=O)[C@H](Cc1ccccc1)NC(=O)[C@H](CCC(=O)O)NC(=O)[C@H](CCCCN)NC(=O)[C@H](C)NC(=O)[C@H](C)NC(=O)[C@H](CCC(N)=O)NC(=O)CNC(=O)[C@H](CCC(=O)O)NC(=O)[C@H](CC(C)C)NC(=O)[C@H](Cc1ccc(O)cc1)NC(=O)[C@H](CO)NC(=O)[C@H](CO)NC(=O)[C@@H](NC(=O)[C@H](CC(=O)O)NC(=O)[C@H](CO)NC(=O)[C@@H](NC(=O)[C@H](Cc1ccccc1)NC(=O)[C@@H](NC(=O)CNC(=O)[C@H](CCC(=O)O)NC(=O)[C@H](C)NC(=O)[C@@H](N)Cc1c[nH]cn1)[C@@H](C)O)[C@@H](C)O)C(C)C)C(=O)N[C@@H](C)C(=O)N[C@@H](Cc1c[nH]c2ccccc12)C(=O)N[C@@H](CC(C)C)C(=O)N[C@H](C(=O)N[C@@H](CCCCN)C(=O)NCC(=O)N[C@@H](CCCNC(=N)N)C(=O)NCC(=O)O)C(C)C [GLP-1]
GLP-1
  degradation of GLP-1 by limited trypsin digestion: quickly degraded

## COC(=O)C1=CCC2C(CO)(CCC3C(C)(C)CCCC32C)C(=O)C1 [RJ-022, (6aR,1aR,11bS)-methyl6a-(hydroxymethyl)-4,4,11b-trimethyl-7-oxo-2,3,4,4a,5,6,6a,7,8,11,11a,11b-dodecahydro-1H-cyclohepta[a]naphthalene-9-carboxylate]
other
  melting point: 179 to 180 °C

## CC1(C)CCC[C@]2(C)[C@H]3CC=C(CO)C[C@@H](O)[C@@H]3CC[C@@H]12 (racemic) [RJ-013, (±)-(6aS,7R,11aS,11bR)-9-(hydroxymethyl)-4,4,11b-trimethyl-2,3,4,4a,5,6,6a,7,8,11,11a,11b-dodecahydro-1H-cyclohepta[a]naphthalen-7-ol]
other
  melting point: 134 to 135 °C

## CC1(C)CCC[C@@]2(C)[C@H]1CC[C@@]1(CO)C(O)CC(CO)=CC[C@@H]12 (stereo partly drawn) [compound 2]
GLP-1 receptor [2]
  positive modulation effect on GLP-1 elicited receptor endocytosis in the presence of exendin 9: diminished
  Efficacy of GLP-1 to elicit receptor endocytosis: 82%
GLP-1 receptor [1]; 3 nM of GLP-1, FIG. 9B
  concentration at which enhancement of cAMP production became saturated: 0.03 mg/mL
GLP-1 receptor [1]; 0.0025 mg/ml of compound 2
  left shift of dose response curve of GLP-1: 2.5 orders of magnitude
GLP-1 receptor [1]; FIG. 10A, 10B
  potentiating effect on GLP-1 stimulated cAMP production in presence of exendin 9 or MDL12330A: blocked
GLP-1 receptor [1]; RINm5F cells
  effect on cAMP production by small molecule agonist Boc5: little effect
  potentiation of the affinity of GLP-1 / GLP-1 dependent cAMP production: up to 1000 fold
GLP-1 receptor [1]; RINm5F cells, listed as Compound 2
  potentiation of the affinity of GLP-1 / GLP-1 dependent cAMP production: 1000 fold
GLP-1 receptor [1]
  cAMP production by compound alone: not able to induce cAMP production
  intrinsic agonistic or antagonistic activity: without intrinsic agonistic or antagonistic activity
GLP-1 receptor [1]; listed as Compound 2
  cAMP production by compound alone: does not elicit cAMP production in the absence of GLP-1
GLP-1 receptor [3]
  EC50: 3.1 µM
[4]
  effect on cAMP production elicited by GIP: do not affect
[5]
  effect on cAMP production elicited by glucagon: do not affect

## CC1(C)CCC[C@@]2(C)C1CC[C@@]1(C=O)[C@H](O)CC(C=O)=CC[C@@H]12 (stereo partly drawn) [galanal B]
GLP-1 receptor [2]; FIG. 5C, 0.001 mg/ml of galanal B
  increase of the affinity of GLP-1: 4 folds
GLP-1 receptor [2]
  positive modulation effect on GLP-1 elicited receptor endocytosis in the presence of exendin 9: diminished
  Efficacy of GLP-1 to elicit receptor endocytosis: 115.2%
PTHR
  potentiation effect on PTH induced receptor endocytosis (selectivity): did not show similar effect on PTH and its cognate receptor
GLP-1
  degradation of GLP-1 by limited trypsin digestion: protects GLP-1 from trypsin degradation
GLP-1 receptor [1]; RINm5F cells
  effect on GLP-1 dose-response curve / GLP-1 stimulated cAMP production: did not significantly affect
GLP-1 receptor [1]; RINm5F cells, listed as galanal b
  effect on GLP-1 dose-response curve / GLP-1 stimulated cAMP production: neutral
GLP-1 receptor [1]; galanal B up to 0.04 mg/ml, FIG. 9B
  cAMP production by 3 nM of GLP-1: not changed
GLP-1 receptor [1]
  intrinsic agonistic or antagonistic activity: without intrinsic agonistic or antagonistic activity

## CC1(C)CCC[C@]2(C)[C@H]3CC=C(C=O)C[C@@H](O)[C@]3(C=O)CC[C@@H]12 [galanal B]
GLP-1 receptor [2]; 4 nM GLP-1
  EC50 to potentiate receptor endocytosis elicited by 4 nM GLP-1: 0.24 mg/L
GLP-1 receptor [2]; 0.0002 mg/ml, 4 nM GLP-1, from 20%
  GLP-1 response potentiated by the fraction: 40%
PTHR
  potentiation effect on PTH induced receptor endocytosis (selectivity): selective for GLP-1 but not for PTH

## COC(=O)[C@@H]1CC[C@H]2C(CC[C@H]3C(C)(C)CCC[C@]23C)C(=O)C1 (mixture of isomers) [RJ-015, (±)-(6aS,11aS,11bR)-methyl 4,4,11b-trimethyl-7-oxotetradecahydro-1H-cyclo-hepta-[a]naphthalene-9-carboxylate]
other
  melting point: 67 to 68 °C

From patent US20150197480A9 (Academia Sinica, priority 2013, published 2015)
